Experimental findings from patent US11613538B2, “Method of inhibiting or reducing a viral infection” (PTC Therapeutics, Inc., priority 2009, dated 2023) are described below.

The test concerns hypoxia-induced VEGF production in HeLa cells. As to the kind of experiment: cells. The test is classed as cell-based, human. The conditions noted are these: Homo sapiens, HeLa.
`CCOC(=O)N1CCc2c([nH]c3ccc(Cl)cc23)C1c1cccc(OCCCN2CCN(C)CC2)c1` (stereo not drawn) [Compound 1112]: the half-maximal effective concentration (EC50) was more than 1000 nM.

In the case of `O=C(OC1CCCC1)N1CCc2c([nH]c3ccc(Cl)cc23)[C@@H]1c1ccc(O)cc1` [Compound 1286], the EC50 lay in the range of 40 to 200 nM.

With `CC#CCOC(=O)N1CCc2c([nH]c3ccc(Cl)cc23)C1c1ccc(OC)c(F)c1` (stereo not drawn) [Compound 1232], the concentration for a half-maximal effect (EC50) lay in the range of 40 to 200 nM.

On to `COc1ccc(OC(=O)N2CCc3c([nH]c4ccc(Cl)cc34)C2c2ccc(OCC(=O)N3CCN(CCCN(C)C)CC3)cc2)cc1` (stereo not drawn) [Compound 1029], for which the EC50 was more than 1000 nM.

Take `CCOC(=O)N1CCc2c([nH]c3ccc(Cl)cc23)[C@@H]1c1ccc(OCCC(O)Cn2ccnn2)cc1` (stereo partly drawn) [Compound 1274]: the concentration giving a half-maximal response (EC50) was less than 8 nM.

As for `CCOC(=O)N1CCc2c([nH]c3ccc(Cl)cc23)[C@@H]1c1ccc(O)cc1` [Compound 1218], the EC50 was 8 to 40 nM.

`COc1ccc(C2c3[nH]c4ccc(Cl)cc4c3CCN2C(=O)C(=O)Oc2ccc(F)cc2)cc1` (stereo not drawn) [Compound 1722] came in with an EC50 of more than 1000 nM.

Turning to `CC1(COC(=O)N2CCc3c([nH]c4ccc(Cl)cc34)[C@@H]2c2ccc(OC[C@@H](O)CO)cc2)CC1` [Compound 1381], the concentration for a half-maximal effect (EC50) is less than 8 nM.

`CCOC(=O)N1CCc2c([nH]c3ccc(Cl)cc23)[C@@H]1c1ccc(OCCC(O)CNS(=O)(=O)CC)cc1` (stereo partly drawn) [Compound 1623] yielded an EC50 of less than 8 nM.

`CC1(C)C(=O)NC(=O)N1CCCOc1ccc(C2c3[nH]c4ccc(Cl)cc4c3CCN2C(=O)Oc2ccc(Cl)cc2)cc1` (stereo not drawn) [Compound 1671] had an EC50 of less than 8 nM.

`CN1CCN(C[C@@H](O)COc2ccc([C@H]3c4[nH]c5ccc(Cl)cc5c4CCN3c3ncccn3)cc2)CC1` [Compound 1312] gave an EC50 of 8 to 40 nM.

Take `OCCCOc1ccc([C@H]2c3[nH]c4ccc(Cl)cc4c3CCN2c2ncccn2)cc1` [Compound 1256]: the EC50 was less than 8 nM.

`NC(=O)COc1ccc(C2c3[nH]c4ccc(Cl)cc4c3CCN2C(=O)Oc2ccc(Br)cc2)cc1` (stereo not drawn) [Compound 1214] registered an EC50 of 8 to 40 nM.

In the case of `CCOC(=O)N1CCc2c([nH]c3ccc(Cl)cc23)C1c1ccc(OC)c(F)c1` (stereo not drawn) [Compound 1198], the EC50 is 8 to 40 nM.

In turn, `C=CCOC(=O)N1CCc2c([nH]c3ccc(Cl)cc23)C1c1ccc(OCCCO)cc1` (stereo not drawn) [Compound 1060] returned a concentration giving a half-maximal response (EC50) of less than 8 nM.

For the compound `COc1ccc(C2c3[nH]c4cccc(Cl)c4c3CCN2C(=O)OCCF)cc1` (stereo not drawn) [Compound 1529], the EC50 lay within 200 to 1000 nM.

The compound `CCOC(=O)NCC(O)CCOc1ccc([C@H]2c3[nH]c4ccc(Cl)cc4c3CCN2C(=O)OCC)cc1` (stereo partly drawn) [Compound 1665] showed a half-maximal effective concentration (EC50) of 8 to 40 nM.

Consider `COc1ccc(C2c3[nH]c4ccc(Cl)cc4c3CCN2C(=O)Oc2ccc(Cl)cc2)cc1OCCCN1CCOCC1` (stereo not drawn) [Compound 1096], for which the EC50 lay within 200 to 1000 nM.

Regarding `CCOC(=O)NC[C@H](O)COc1ccc([C@H]2c3[nH]c4ccc(Cl)cc4c3CCN2C(=O)Oc2ccc(F)cc2)cc1` [Compound 1663], the concentration giving a half-maximal response (EC50) was less than 8 nM.

`C=CCOc1ccc([C@H]2c3[nH]c4ccc(Cl)cc4c3CCN2c2ncccn2)cc1` [Compound 1237] showed an EC50 of less than 8 nM.

`CCOC(=O)N1CCc2c([nH]c3ccc(Cl)cc23)[C@@H]1c1ccc(OC[C@@H](O)CO)cc1` [Compound 1222] showed an EC50 of less than 8 nM.

Compound `O=C(Oc1ccc(Cl)cc1)N1CCc2c([nH]c3ccc(Cl)cc23)[C@@H]1c1ccc(OCCCNCCO)cc1` [Compound 1257] registered a concentration for a half-maximal effect (EC50) of 8 to 40 nM.

Turning to `CC(C)OC(=O)N1CCc2c([nH]c3ccc(Cl)cc23)C1c1ccc(OCCCO)cc1` (stereo not drawn) [Compound 1074], the EC50 is less than 8 nM.

With `CCOC(=O)NC[C@@H](O)COc1ccc([C@H]2c3[nH]c4ccc(Cl)cc4c3CCN2C(=O)OCC)cc1` [Compound 1650], the EC50 is less than 8 nM.

`COc1ccc(C2c3[nH]c4ccc([S+](C)[O-])cc4c3CCN2C(=O)OC(C)(C)C)cc1` (stereo not drawn) [Compound 1494] registered an EC50 of more than 1000 nM.

`COCCOC(=O)N1CCc2c([nH]c3ccc(Cl)cc23)C1c1ccc(OCCn2nc(N)cc2C)cc1` (stereo not drawn) [Compound 1437] came in with an EC50 of 8 to 40 nM.

On to `C=CCOC(=O)N1CCc2c([nH]c3ccc(Cl)cc23)C1c1ccc(OCC2OCCO2)cc1` (stereo not drawn) [Compound 1044], for which the concentration for a half-maximal effect (EC50) is less than 8 nM.

Compound `O=C(Oc1ccc(Cl)cc1)N1CCc2c([nH]c3ccc(Cl)cc23)[C@@H]1c1ccc(OCC(CO)CO)cc1` [Compound 1209] had a concentration for a half-maximal effect (EC50) of less than 8 nM.

`CC#CCOC(=O)N1CCc2c([nH]c3c(C)cccc23)C1c1ccc(OC)cc1` (stereo not drawn) [Compound 1430] came in with an EC50 of more than 1000 nM.

Compound `CN1CCN(CCCOc2cccc(C3c4[nH]c5ccc(Cl)cc5c4CCN3C(=O)Oc3ccc(F)cc3)c2)CC1` (stereo not drawn) [Compound 1113] yielded a 50% effective concentration (EC50) of 200 to 1000 nM.

`CN1CCCC1CCOc1ccc(C2c3[nH]c4ccc(Cl)cc4c3CCN2C(=O)Oc2ccc(F)cc2)cc1` (stereo not drawn) [Compound 1008] showed a concentration giving a half-maximal response (EC50) of 40 to 200 nM.

`O=C(Oc1ccc(F)cc1)N1CCc2c([nH]c3ccc(Cl)cc23)C1c1cccc(OCCCN2CCSCC2)c1` (stereo not drawn) [Compound 1117] displayed an EC50 of 8 to 40 nM.

Take `[H]/N=C(\N)NCCOc1ccc(C2c3[nH]c4ccc(Cl)cc4c3CCN2C(=O)OCC)cc1` (stereo not drawn) [Compound 1397]: the 50% effective concentration (EC50) is 40 to 200 nM.

`CC1(C)OC[C@H](CCOc2ccc([C@H]3c4[nH]c5ccc(Cl)cc5c4CCN3C(=O)OCC3CC3)cc2)O1` [Compound 1314] showed a 50% effective concentration (EC50) of less than 8 nM.

With `O=C(Oc1ccc(Cl)cc1)N1CCc2c([nH]c3ccc(Cl)cc23)C1c1ccc(OCCCN(CCO)CCO)cc1` (stereo not drawn) [Compound 1184], the half-maximal effective concentration (EC50) was less than 8 nM.

Compound `OCC(CO)COc1ccc(C2c3[nH]c4ccc(Cl)cc4c3CCN2c2ncccn2)cc1` (stereo not drawn) [Compound 1243] came in with an EC50 of 8 to 40 nM.

In turn, `CCOC(=O)N1CCc2c([nH]c3ccc(Cl)cc23)C1c1ccc(OC)cc1F` (stereo not drawn) [Compound 1268] registered a concentration for a half-maximal effect (EC50) of less than 8 nM.

`CCCOC(=O)C(=O)N1CCc2c([nH]c3ccc(Cl)cc23)C1c1ccc(OC)cc1` (stereo not drawn) [Compound 1339] came in with a 50% effective concentration (EC50) of 8 to 40 nM.

Regarding `CC(C)(C)OC(=O)N1CCc2c([nH]c3ccc(Cl)cc23)[C@@H]1c1ccc(OCCCn2ccnn2)cc1` [Compound 1239], the EC50 was less than 8 nM.

For `CCCOC(=O)N1CCc2c([nH]c3ccc(Cl)cc23)C1c1ccc(OCC[C@H](O)CO)cc1` (stereo partly drawn) [Compound 1174], the EC50 fell in the range of 8 to 40 nM.

As for `CCOC(=O)N1CCc2c([nH]c3ccc(Br)cc23)C1c1ccc(OCC(O)CO)cc1` (stereo not drawn) [Compound 1340], the 50% effective concentration (EC50) lay in the range of 8 to 40 nM.

As for `Clc1ccc2[nH]c3c(c2c1)CCN(c1ncccn1)C3c1ccc(OCCCn2cncn2)cc1` (stereo not drawn) [Compound 1201], the EC50 was less than 8 nM.

Compound `C=CCOc1ccc([C@H]2c3[nH]c4ccc(Cl)cc4c3CCN2C(=O)OCC2CCC2)cc1` [Compound 1366] returned a concentration giving a half-maximal response (EC50) of less than 8 nM.

Regarding `CCCOC(=O)NCC(O)CCOc1ccc([C@H]2c3[nH]c4ccc(Cl)cc4c3CCN2C(=O)OCC)cc1` (stereo partly drawn) [Compound 1620], the EC50 is less than 8 nM.

`COc1ccc(OC(=O)N2CCc3c([nH]c4cccc(Br)c34)C2c2ccc(OC)cc2)cc1` (stereo not drawn) [Compound 1527] returned an EC50 of 200 to 1000 nM.

In turn, `CCOC(=O)N1CCc2c([nH]c3ccc(Cl)cc23)C1c1ccc(OCC(O)CNS(=O)(=O)C2CC2)cc1` (stereo not drawn) [Compound 1475] displayed a 50% effective concentration (EC50) of less than 8 nM.

In turn, `CCOC(=O)N1CCc2c([nH]c3ccc(Cl)cc23)[C@@H]1c1ccc(OCCC(O)CNC(=O)CC)cc1` (stereo partly drawn) [Compound 1615] returned an EC50 of 8 to 40 nM.

`COc1ccc(C2c3[nH]c4ccc(Cl)cc4c3CCN2C(=O)OCCn2nccn2)cc1` (stereo not drawn) [Compound 1156] showed a 50% effective concentration (EC50) of 8 to 40 nM.

On to `CCCOC(=O)N1CCc2c([nH]c3ccc(Cl)cc23)C1c1ccc(OCC[C@H]2COC(C)(C)O2)cc1` (stereo partly drawn) [Compound 1164], for which the concentration for a half-maximal effect (EC50) was less than 8 nM.

`COc1cc(C2c3[nH]c4ccc(Cl)cc4c3CCN2C(=O)Oc2ccc(Cl)cc2)ccc1OCCN1CCOCC1` (stereo not drawn) [Compound 1092] gave a half-maximal effective concentration (EC50) of 8 to 40 nM.

Turning to `COc1ccc(C2c3[nH]c4ccc(SC)cc4c3CCN2C(=O)Oc2ccc(Cl)cc2)cc1` (stereo not drawn) [Compound 1483], the concentration giving a half-maximal response (EC50) was in the range of 8 to 40 nM.

The compound `CCOC(=O)N1CCc2c([nH]c3ccc(Cl)cc23)[C@@H]1c1ccc(OCC[C@H]2COC(C)(C)O2)cc1` [Compound 1202] yielded a 50% effective concentration (EC50) of less than 8 nM.

In the case of `COc1ccc(OC(=O)N2CCc3c([nH]c4ccc(Cl)cc34)C2c2ccc(OCC(=O)NCCN3CCOCC3)cc2)cc1` (stereo not drawn) [Compound 1026], the half-maximal effective concentration (EC50) is 8 to 40 nM.

In turn, `CCOC(=O)N1CCc2c([nH]c3ccc(Cl)cc23)C1c1cccc(OCCCN2CCN(C(C)=O)CC2)c1` (stereo not drawn) [Compound 1363] yielded an EC50 of 40 to 200 nM.

`O=C(Oc1ccc(F)cc1)N1CCc2c([nH]c3cc(Br)ccc23)C1c1ccc(OC(F)F)cc1` (stereo not drawn) [Compound 1450] gave an EC50 of 40 to 200 nM.

The compound `COc1ccc(C2c3[nH]c4ccc(Cl)cc4c3CCN2C(=O)OCC(C)C)cn1` (stereo not drawn) [Compound 1481] returned an EC50 of 8 to 40 nM.

On to `COc1ccc(C2c3[nH]c4ccc(Cl)cc4c3CCN2C(=O)OCCn2cncn2)cc1` (stereo not drawn) [Compound 1158], for which the 50% effective concentration (EC50) is more than 1000 nM.

With `CC1(C)OC[C@H](COc2ccc([C@H]3c4[nH]c5ccc(Cl)cc5c4CCN3C(=O)Oc3ccc(Cl)cc3)cc2)O1` [Compound 1227], the EC50 was less than 8 nM.

Compound `CN1CCC(Oc2ccc([C@H]3c4[nH]c5ccc(Cl)cc5c4CCN3C(=O)Oc3ccc(Cl)cc3)cc2)CC1` [Compound 1694] returned an EC50 of less than 8 nM.

`O=C(OCC1CCCC1)N1CCc2c([nH]c3ccc(Cl)cc23)[C@@H]1c1ccc(OCCCO)cc1` [Compound 1630] gave an EC50 of less than 8 nM.

In the case of `COC(=O)N1CCc2c([nH]c3ccc(Cl)cc23)C1c1ccc(OCCC2CCCN2C)cc1` (stereo not drawn) [Compound 1007], the EC50 is 40 to 200 nM.

As for `O=C(Oc1ccc(Cl)cc1)N1CCc2c([nH]c3cc(Br)ccc23)C1c1ccc(OC(F)F)cc1` (stereo not drawn) [Compound 1446], the half-maximal effective concentration (EC50) was in the range of 40 to 200 nM.

The compound `CCOC(=O)N1CCc2c([nH]c3ccc(Cl)cc23)C1c1ccc(OCC(=O)NCCOC)cc1` (stereo not drawn) [Compound 1015] returned an EC50 of 40 to 200 nM.

The compound `COc1ccc(OC(=O)N2CCc3c([nH]c4cc(C(F)(F)F)ccc34)C2c2ccc(OC)cc2)cc1` (stereo not drawn) [Compound 1425] gave an EC50 of more than 1000 nM.

`CC(CO)(CO)COc1ccc([C@H]2c3[nH]c4ccc(Cl)cc4c3CCN2C(=O)OCC2CCC2)cc1` [Compound 1376] came in with an EC50 of less than 8 nM.

For the compound `COc1cc(C2c3[nH]c4ccc(Cl)cc4c3CCN2C(=O)Oc2ccccc2)ccc1OCCCN1CCOCC1` (stereo not drawn) [Compound 1130], the concentration giving a half-maximal response (EC50) lay in the range of 8 to 40 nM.

As a reminder, the EC50 is the concentration needed to bring the measured effect to its halfway point.
